From US20250049932A1, “CYTOTOXICITY TARGETING CHIMERAS FOR FOLATE RECEPTOR-EXPRESSING CELLS” (GLAXOSMITHKLINE INTELLECTUAL PROPERTY DEVELOPMENT LIMITED, priority 2022, published 2025)
Where “and” joins values, the source holds several entries; their conditions need not be identical. Equal values may be shown once.

Target: T1, FOLR (Homo sapiens, UniProt P15328)
T1 construct: Target cells: IGROV1 cells (typically 1000-20,000 cells per well); endogenous in cells; host or cells: IGROV1 cells
Assay: Antibody dependent cellular cytotoxicity (ADCC) reporter assay
Format: cell-based
Settings: IGROV1 target cells; anti-cotinine antibody (SEQ ID NO: 11/12, human IgG1 Fc S239D/I332E); Jurkat FcγRIIIa NFAT-luciferase reporter cells; about 12-18 hours; one value per experimental run; EC50 in molar (M); footnote: pEC50 < 5 = inactive
Protocol: An antibody dependent cellular cytotoxicity (ADCC) reporter assay was conducted using the following four assay components: (i) ARM compound of Formula (I) targeting FOLR (concentrations ranging from 1 pM to 10 μM); (ii) anti-cotinine antibody having a heavy chain sequence of SEQ ID NO: 11 and a light chain sequence of SEQ ID NO: 12 (rabbit variable region with human IgG1 Fc domain containing DE mutation (S239D/I332E)) (concentrations ranging from 0.01 μg/mL-200 μg/mL); (iii) Target cells: IGROV1 cells (typically 1000-20,000 cells per well); and (iv) Reporter cells—Jurkat cells engineered to express FcγRIIIa with a reporter gene luciferase under the control of the NFAT promoter (typically 3000-75,000 cells per well). Reagents were combined in final volume of 20 μL in 384-well tissue culture treated plate. […]
Luminescence signal was measured on a microplate reader capable of measuring luminescence and signal: background was calculated by dividing the signal of a test well by the signal obtained when no compound of formula (I) was included in the assay. […]
ARMs compounds of Formula (I) were tested for ADCC activity in the above assay in one or more experimental runs and the results are shown in Table 3 below. […] The pEC50 value is the negative log of the EC50 value, wherein the EC50 value is half maximal effective concentration measured in molar (M). […]

T1 sequence (P15328 25-234 limits assumed): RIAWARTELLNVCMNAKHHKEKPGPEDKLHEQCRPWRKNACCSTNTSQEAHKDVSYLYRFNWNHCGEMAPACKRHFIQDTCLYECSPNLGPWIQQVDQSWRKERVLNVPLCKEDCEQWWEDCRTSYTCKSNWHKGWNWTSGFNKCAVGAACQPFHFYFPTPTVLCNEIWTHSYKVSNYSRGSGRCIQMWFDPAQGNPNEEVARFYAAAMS

SMILES	ADCC Reporter Assay pEC50	EC50
CN1C(=O)C[C@H](C(=O)NCCNC(=O)CC[C@H](NC(=O)c2ccc(NCc3cnc4nc(N)[nH]c(=O)c4n3)cc2)C(=O)O)[C@H]1c1cccnc1 [Example 1, N2-(4-(((2-Amino-4-oxo-3,4-dihydropteridin-6-yl)methyl)amino)benzoyl)-N5-(2-((2S,3S)-1-methyl-5-oxo-2-(pyridin-3-yl)pyrrolidine-3-carboxamido)ethyl)-L-glutamine]	4.5 and 4.8	
CN1C(=O)C[C@H](C(=O)NCCO[C@H]2CC[C@H](OCCCC(=O)N[C@H]3CC[C@H](C(=O)NCCNC(=O)CC[C@H](NC(=O)c4ccc(NCc5cnc6nc(N)[nH]c(=O)c6n5)cc4)C(=O)O)CC3)CC2)[C@H]1c1cccnc1 (racemic) [Example 2, N2-(4-(((2-Amino-4-oxo-3,4-dihydropteridin-6-yl)methyl)amino)benzoyl)-N5-(2-((1R,4S)-4-(4-(((1S,4R)-4-(2-((2S,3S)-1-methyl-5-oxo-2-(pyridin-3-yl)pyrrolidine-3-carboxamido)-ethoxy)cyclohexyl)oxy)butanamido)cyclohexane-1-carboxamido)ethyl)-L-glutamine]		6.31e-08 M and 7.94e-08 M
